Assay results reported in US20240360193A1, “POLYPEPTIDE DERIVATIVE WITH DUAL GLP-1R AND GIPR TARGETING AGONISTIC EFFECT, AND PREPARATION METHOD AND USE THEREOF” (NANJING ZHIHE MEDICINE TECHNOLOGY CO., LTD., priority 2021, published 2024).
Where two headings read alike, the source gives them in different places. Square brackets hold non-standard residues; d marks the D form. Peptide text beside a SMILES is read from it. * marks the point of attachment. X1 = O=C(O)CCCCCCCCCCCCCCCCCCC(=O)NC(CCC(=O)NCCOCCOCCNC(=O)COCCOCC(=O)*)C(=O)O; Aib = CC(C)(N)C(=O)O

What was measured:
in vivo = experiment: in vivo; set-up: species or system SD rats; details: rat, sc, 1.35 mg/kg; for MRT: male, SD
Experimental: The polypeptide derivative (1) and Tirzepatide were subcutaneously administered to male rats respectively in a single dose, blood samples of the male rats were then collected at different time points, and a concentration of the compound in plasma was determined by LC-MS/MS and related pharmacokinetic parameters were calculated, to investigate the pharmacokinetic characteristics of the compound in the rats.
16 male SD rats were randomly divided into two groups of eight rats each based on body weights. The rats were fasted for 12 h to 14 h, but water was allowed, one day before the administration. The rats were given food 4 h after the administration.
Sample collection: Before and after the administration, 0.1 mL of blood was sampled from the orbit of each rat under isoflurane anaesthesia, and then added in an EDTAK2 centrifuge tube in an ice bath to be centrifuged at 4° C. at 5000 rpm for 10 min. Then, plasma was collected.
Time points for blood collection of SC groups are 0, 5 min, 15 min, 30 min, 1 h, 2 h, 4 h, 6 h, 8 h, 24 h, 28 h, 32 h, and 48 h. All plasma samples were stored at −80° C. before analysis and testing.
The software Analyst 1.5.1 (Applied Biosystem) was used for data collection and system control. Automatic chromatographic peak integration was used for the sample. The sample concentration was regressed with a ratio of the sample peak area to the internal standard peak area as an index. Linear regression was used with a weighting factor of 1/X^2. Pharmacokinetic parameters were analyzed and processed with a non-compartmental model by using WinNonlin Professional v6.3 (Pharsight, USA). Cmax is a measured maximum plasma concentration. An area AUC(0→t) under a plasma concentration-time curve is obtained through ladder-shape calculation. Tmax is a time of a peak plasma concentration after the administration. The experimental data was expressed as “mean±standard deviation” (Mean±SD, n≥8) or “mean” (Mean, n=8).
Based on the plasma concentration data, the pharmacokinetic parameters after the administration calculated with the on-compartmental model by using WinNonlin V6.3 are shown in the following table.

[1] = set-up: species or system humans; details: human, in vivo
Excerpt: According to disclosed data, an average clinical half-life of the control Tirzepatide in humans is 5.0 days.

[2] = human, in vivo; cited from earlier work

Structure (SMILES)	MRT (in vivo) [h]	AUC(0-inf) (in vivo) [ng·h/mL]	AUC(0-t) (in vivo) [ng·h/mL]	AUMC0-inf (in vivo) [h · h · ng · mL^−1]	AUMC0-t (in vivo) [h · h · ng · mL^−1]	Cmax (in vivo) [ng/mL]	Kel (in vivo) [h⁻¹]	Tmax (in vivo) [h]	half-life (in vivo) [h]	half-life [1] [h]	average clinical half-life in humans [2] [h]
CC[C@H](C)[C@H](NC(=O)[C@H](CCCCN)NC(=O)[C@H](CC(=O)O)NC(=O)[C@H](CC(C)C)NC(=O)C(C)(C)NC(=O)[C@@H](NC(=O)[C@H](CO)NC(=O)[C@H](Cc1ccc(O)cc1)NC(=O)[C@H](CC(=O)O)NC(=O)[C@H](CO)NC(=O)[C@@H](NC(=O)[C@H](Cc1ccccc1)NC(=O)[C@@H](NC(=O)CNC(=O)[C@H](CC(=O)O)NC(=O)C(C)(C)NC(=O)[C@@H](N)Cc1ccc(O)cc1)[C@@H](C)O)[C@@H](C)O)[C@@H](C)CC)C(=O)N[C@@H](C)C(=O)N[C@@H](CCC(N)=O)C(=O)N[C@@H](CCCCNC(=O)COCCOCC(=O)NCCOCCOCCNC(=O)CCC(NC(=O)CCCCCCCCCCCCCCCCCCC(=O)O)C(=O)O)C(=O)N[C@@H](C)C(=O)N[C@@H](Cc1ccccc1)C(=O)N[C@H](C(=O)N[C@@H](CCC(N)=O)C(=O)N[C@@H](Cc1c[nH]c2ccccc12)C(=O)N[C@@H](CC(C)C)C(=O)N[C@@H](CC(C)C)C(=O)N[C@@H](C)C(=O)NCC(=O)NCC(=O)N1CCC[C@H]1C(=O)N[C@@H](CO)C(=O)N[C@@H](CO)C(=O)NCC(=O)N[C@@H](C)C(=O)N1CCC[C@H]1C(=O)N1CCC[C@H]1C(=O)N1CCC[C@H]1C(=O)N[C@@H](CO)C(N)=O)C(C)C (some centres unmarked) [Polypeptide derivative (1)] (H-Y[Aib]DGTFTSDYSI[Aib]LDKIAQK(X1)AFVQWLLAGGPSSGAPPPS-NH2)	33.6	89700	70400	3022264	1621331	2070	0.0421	25.3	16.7	189	–
CC[C@H](C)[C@H](NC(=O)[C@H](CC(C)C)NC(=O)[C@H](Cc1c[nH]c2ccccc12)NC(=O)[C@H](CCC(N)=O)NC(=O)[C@@H](NC(=O)[C@H](Cc1ccccc1)NC(=O)[C@H](C)NC(=O)[C@H](CCCCNC(=O)COCCOCCNC(=O)COCCOCCNC(=O)CC[C@H](NC(=O)CCCCCCCCCCCCCCCCCCC(=O)O)C(=O)O)NC(=O)[C@H](CCC(N)=O)NC(=O)[C@H](C)NC(=O)[C@@H](NC(=O)[C@H](CCCCN)NC(=O)[C@H](CC(=O)O)NC(=O)[C@H](CC(C)C)NC(=O)C(C)(C)NC(=O)[C@@H](NC(=O)[C@H](CO)NC(=O)[C@H](Cc1ccc(O)cc1)NC(=O)[C@H](CC(=O)O)NC(=O)[C@H](CO)NC(=O)[C@@H](NC(=O)[C@H](Cc1ccccc1)NC(=O)[C@@H](NC(=O)CNC(=O)[C@H](CCC(=O)O)NC(=O)C(C)(C)NC(=O)[C@@H](N)Cc1ccc(O)cc1)[C@@H](C)O)[C@@H](C)O)[C@@H](C)CC)[C@@H](C)CC)C(C)C)C(=O)N[C@@H](C)C(=O)NCC(=O)NCC(=O)N1CCC[C@H]1C(=O)N[C@@H](CO)C(=O)N[C@@H](CO)C(=O)NCC(=O)N[C@@H](C)C(=O)N1CCC[C@H]1C(=O)N1CCC[C@H]1C(=O)N1CCC[C@H]1C(=O)N[C@@H](CO)C(N)=O [Tirzepatide]	25.6	52100	46700	1352210	1003190	1540	0.0680	20	10.6	–	120
